Here are results for 45 compounds from PMC7822874, “Chemoprotective antimalarials identified through quantitative high-throughput screening of Plasmodium blood and liver stage parasites” (Scientific Reports, 2021).

Assay [1] concerns T1, Plasmodium falciparum Dd2-attB (parental line), asexual blood stages.
T1 construct: Dd2-attB, the isogenic parental line
The assay can be described thus: microbe, parasite or virus in culture. Also on record: replicate k of 3 (each line is one of three independent assays; the three lines of one compound and parasite line follow each other). Conditions: n = 1; for Individual replicates / Log AC50 (M): 72 h; for AC50: Plasmodium falciparum, DD2, 72 h, read-out: Individual replicates / Log AC50 (converted). Summed up: (§1)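 Statistics: two-sided Student's t-test between parental and transgenic values, from three independent assays. The transgene encodes a fumarate-dependent DHODH from yeast, independent of the parasite mETC.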

The test system of assay [2] is T2, Plasmodium falciparum Dd2-attB-ScDHODH (transgenic line expressing yeast DHODH), asexual blood stages.
T2 construct: Dd2-attB-ScDHODH, the transgenic line that expresses yeast DHODH
Description: organism not typed. Also on record: replicate k of 3 (each line is one of three independent assays; the three lines of one compound and parasite line follow each other). Conditions: 72 h, n = 1; for AC50: read-out: Individual replicates / Log AC50 (converted). In short, it runs like this:
as §1

For assay [3], the system named is T1, Plasmodium falciparum Dd2-attB (parental line), asexual blood stages. Description: microbe, parasite or virus in culture. Further details: species or system P. falciparum Dd2-attB in human erythrocytes; SYBR Green-I proliferation assay, Dd2-attB parental line, asexual blood stages. Conditions: 72 h; for AC50: Plasmodium falciparum, DD2, Erythrocyte, read-out: Calculated / Average Log AC50 (M), mean of replicates, 72 h (converted).

“And” between values parts separate entries of the source, which are not always exact repeats. Identical values can stand only once. Like-named read-outs stand apart in the source and are kept apart here.

For the compound `O=[S+]([O-])(c1nc2ccccc2[nH]1)N(CCc1ccccc1)CCN1CCCCC1` [NCGC00389114-01], the “Individual replicates / Log AC50 (M)” value in assay [1] is -5.5486 Log AC50 (M) (2×) and -5.0486 Log AC50 (M); in assay [2], -5.6986 Log AC50 (M) and -5.2486 Log AC50 (M). Also, the AC50 in assay [3] was 4.15e-06 M.
In the case of `O=C(O)c1ccnc(-n2ncc(C(OCCN3CCCCC3)c3ccccc3Cl)c2-c2cccc(-c3ccccc3)c2)c1` (stereo not shown) [NCGC00481640-01], the “Individual replicates / Log AC50 (M)” value is -5.0486 Log AC50 (M) and -4.8986 Log AC50 (M) (2×) in assay [1]; -4.7986 Log AC50 (M) and -4.8486 Log AC50 (M) in assay [2]. Moreover, in assay [3] (mean of replicates, inhibitor, Calculated / Average Log AC50 (M)), the “Calculated / Average Log AC50 (M)” value is -4.9486 M.
Take `COC(=O)c1ccnc2cc(C(OCCN3CCCCC3)c3ccccc3Cl)sc12` (stereo not shown) [NCGC00481502-01]: the “Individual replicates / Log AC50 (M)” value was -5.0486 Log AC50 (M) and -4.8486 Log AC50 (M) in assay [1]; -4.7486 Log AC50 (M) in assay [2]. For the same compound, the AC50 was 15.9 µM in assay [1], 17.8 µM in assay [2] and 1.26e-05 M in assay [3].
As to `O=C(O)c1ccc(O)c2ncc(NCC3CCCN(CCc4ccccc4)C3)cc12` (stereo not shown) [NCGC00241759-01], the “Individual replicates / Log AC50 (M)” value in assay [1] is -5.0486 Log AC50 (M); in assay [2], -4.8486 Log AC50 (M). Besides, the AC50 in assay [1] was 7.1 µM; in assay [2], 8.94 µM; in assay [3], 1.04e-05 M.
Consider `O=C(NCCCN1CCCCC1)c1cccc(-c2cc(O)c3ncccc3c2)c1` [NCGC00244529-01], for which the “Individual replicates / Log AC50 (M)” value in assay [1] is listed as -5.0486 Log AC50 (M); in assay [2], -4.7986 Log AC50 (M). For the same compound, the values for the AC50 in assay [1], in assay [2] and in assay [3] were 14.2 µM, 8.94 µM and 1.04e-05 M, respectively.
Turning to `O=C(O)c1ccc(O)c2ncc(N3CCN(CCc4ccncc4)CC3)cc12` [NCGC00247761-01], the values for the AC50 in assay [1] and in assay [3] were 8.94 µM and 1e-05 M, respectively.
For `CCc1cccc(C)c1Nc1c(-c2ccc(N(C)C)cc2)nc2ncccn12` [NCGC00107648-03], the AC50 is 15.9 µM in assay [1] and 1.93e-05 M in assay [3].
Consider `CN(C)CCCNC(=O)c1cccc(-c2cc(O)c3ncccc3c2)c1` [NCGC00244527-01], for which the “Individual replicates / Log AC50 (M)” value in assay [1] is -5.0486 Log AC50 (M) and -4.8486 Log AC50 (M); in assay [2], -4.7986 Log AC50 (M). Besides, the AC50 in assay [1] is 14.2 µM; in assay [2] it was 8.94 µM; in assay [3] it was 1.22e-05 M.
On to `Cc1ccccc1CN1CCN(c2cnc3c(O)ccc(C(=O)O)c3c2)CC1` [NCGC00249382-01], for which the AC50 is 14.2 µM in assay [1], 15.9 µM in assay [2] and 1.65e-05 M in assay [3].
Regarding `CN(C)CCCN1CCN(C(=O)c2cccc(-c3cc(O)c4ncccc4c3)c2)CC1` [NCGC00247746-01], the “Individual replicates / Log AC50 (M)” value in assay [1] is -4.7486 Log AC50 (M). The AC50 in assay [1] was 11.3 µM; in assay [2] it was 15.9 µM; in assay [3], 1.53e-05 M.
Take `Oc1ccc(CNc2nccc3ccccc23)c2cccnc12` [NCGC00241025-01]: the “Individual replicates / Log AC50 (M)” value in assay [1] is -5.2486 Log AC50 (M) and -4.8986 Log AC50 (M) and -5.1986 Log AC50 (M); in assay [2], -5.2486 Log AC50 (M) and -4.7486 Log AC50 (M). Besides, the AC50 in assay [3] was 7.67e-06 M.
For `COc1ccc(CNC(=O)c2nc([S+](=O)([O-])Cc3ccccc3)ncc2Cl)cc1` [NCGC00117170-03], the values for the AC50 in assay [1] and in assay [3] were 8.94 µM and 1.31e-05 M, respectively.
Take `CN(C)CCNC(=O)c1ccc(-c2cc(O)c3ncccc3c2)cc1` [NCGC00247749-01]: the “Individual replicates / Log AC50 (M)” value in assay [1] was -4.9986 Log AC50 (M) and -5.0486 Log AC50 (M). In addition, the AC50 in assay [1] was 15.9 µM; in assay [2], 17.8 µM; in assay [3], 1.13e-05 M.
Turning to `CCOC(=O)c1ccnc(-c2ncn(C)c2-c2ccc(OC)cc2)c1` [NCGC00409816-01], the “Individual replicates / Log AC50 (M)” value is -5.1986 Log AC50 (M) and -4.8486 Log AC50 (M) and -5.0986 Log AC50 (M) in assay [1]; -4.9486 Log AC50 (M) and -4.7986 Log AC50 (M) in assay [2]. For the same compound, the AC50 in assay [2] is 7.97 µM; in assay [3], 8.94e-06 M.
As for `COc1ccc(-c2c(-c3cc([N+](=O)[O-])ccn3)ncn2C)cc1` [NCGC00414991-01], the AC50 in assay [1] is 14.2 µM; in assay [2], 8.94 µM; in assay [3], 1.22e-05 M. Moreover, in assay [2], the “Individual replicates / Log AC50 (M)” value is -4.7986 Log AC50 (M).
Turning to `Cc1cccc(CN2CCN(c3cnc4c(O)ccc(C(=O)O)c4c3)CC2)c1` [NCGC00249381-01], the AC50 in assay [1] is 15.9 µM; in assay [3], 1.78e-05 M.
On to `O=C(O)c1ccc(O)c2ncc(N3CCOCC3)cc12` [NCGC00241036-03], for which the “Individual replicates / Log AC50 (M)” value in assay [1] is reported as -4.8486 Log AC50 (M). In addition, in assay [3], the AC50 is 1.65e-05 M.
As for `O=C(O)CCNc1cc(N2CCc3ccccc3CC2)nc(-c2cccnc2)n1` [NCGC00351549-01], the AC50 was 15.9 µM in assay [2] and 2.08e-05 M in assay [3].
In the case of `CC(OCCN1CCCCC1)c1cnn(-c2cc(C(=O)O)ccn2)c1-c1cccc(-c2ccccc2)c1` (stereo not shown) [NCGC00481287-01], the results for the AC50 in assay [1] and in assay [3] were 15.9 µM and 1.36e-05 M, respectively.
Taken in the same sequence, the figures for `CCOc1ccc(-c2[nH]c3c(C#N)cnn3c2NC2CCCCC2)cc1` [NCGC00119971-02] were 15.9 µM and 1.85e-05 M.
Take `O=C(O)c1ccc(O)c2ncc(N3CCC(N4CCOCC4)CC3)cc12` [NCGC00249380-01]: the AC50 in assay [2] was 17.8 µM; in assay [3], 1.47e-05 M.
Turning to `CC1Cc2cc([S+](=O)([O-])NCc3ccc(N(C)C)cc3)ccc2N1C(=O)C1CCC1` (stereo not shown) [NCGC00124605-03], the values for the AC50 in assay [2] and in assay [3] were 15.9 µM and 1.47e-05 M, respectively.
For the compound `COC(=O)c1ccnc(-c2cn(C)cn2)c1NC(=O)Cc1ccc(Cl)cc1` [NCGC00420786-01], in assay [1], the “Individual replicates / Log AC50 (M)” value was -5.0486 Log AC50 (M) and -4.7486 Log AC50 (M); the AC50 was 17.8 µM. In assay [3], the AC50 was 1.42e-05 M.
`O=C(N[C@H]1CCN(c2cc(-c3ccc(Cl)cc3)[nH]n2)C1)c1ccccc1` [NCGC00489097-01]: the figures for the AC50 in assay [1] and in assay [3] were 6.33 µM and 1.19e-05 M, respectively.
Consider `O=C(NC1CCN(C(=O)c2cc(-c3ccccc3)n[nH]2)C1)c1ccccc1` (stereo not shown) [NCGC00492307-01], for which the AC50 is 14.2 µM in assay [2] and 1.59e-05 M in assay [3].
As for `COC(=O)c1ccnc(-c2cc(C(=O)NCCc3ccccc3)ccn2)c1` [NCGC00351541-01], the AC50 in assay [3] is 2.16e-05 M.
With `O=C(O)c1ccc(O)c2ncc(NC3CCNCC3)cc12` [NCGC00241037-01], the figures for the AC50 in assay [1] and in assay [3] were 14.2 µM and 1.72e-05 M, respectively.
Consider `C=C[S+](=O)([O-])N1CCCN(c2cc(NCCC(=O)O)nc(-c3ccccn3)n2)CC1` [NCGC00420874-01], for which, in assay [3], the AC50 is 2.25e-05 M.
For the compound `O=C(N[C@H]1CC(=O)N(c2cc(-c3ccccc3)[nH]n2)C1=O)c1ccccc1` [NCGC00489852-01], the AC50 in assay [3] is 7.1e-10 M.
With `CN(C)CCCNC(=O)c1ccccc1-c1cc(O)c2ncccc2c1` [NCGC00247753-01], in assay [3], the AC50 was 1.47e-05 M.
On the same count and under the same terms, to `O=C(O)c1ccnc2c(O)cc(N3CCOCC3)cc12` [NCGC00247744-02] belongs 1.5e-07 M; to `CC(C)(C)c1cc(N2CCC(NC(=O)c3ccccc3)C2)n[nH]1` (stereo not shown) [NCGC00488845-01], 2.25e-05 M.
`COC(=O)c1ccc(N(CCN2CCC(F)(F)CC2)c2ccc(F)cc2)cn1` [NCGC00390009-01]: the AC50 in assay [3] is 1.53e-05 M.
Take `Cn1ccnc1CCOC(c1cc2nccc(C(=O)O)c2[nH]1)c1ccccc1Cl` (stereo not shown) [NCGC00421835-01]: the values for the AC50 in assay [1] and in assay [3] were 15.9 µM and 1.85e-05 M, respectively.
Regarding `CCOC(=O)c1cnn(-c2cc(C(N)=O)ccn2)c1-c1ccc(OC)cc1` [NCGC00421836-01], in assay [3], the AC50 is 6.33e-06 M.
Regarding `CC(C)c1c(-c2cnn(C(C)(C)C)c2)n2ncc(C#N)c2[nH]c1=O` [NCGC00500019-01], the AC50 in assay [3] was 1.53e-05 M.
Consider `CCN(Cc1noc(CC(C)C)n1)C(=O)c1cnc(-c2ccccn2)nc1O` [NCGC00438951-02], for which the AC50 in assay [3] was 1.85e-05 M.
Regarding `CN(C)CCCNC(=O)c1ccc(-c2cnc3c(O)ccc(C(=O)O)c3c2)cc1` [NCGC00189503-01], in assay [3], the AC50 is 1.93e-05 M.
On to `O=C(O)c1ccnc(-n2ncc(C(OCCN3CCCCC3)c3ccccc3)c2-c2ccccc2Cl)c1` (stereo not shown) [NCGC00483104-01], for which, in assay [3], the AC50 is 1.36e-05 M.
As for `Cc1cccc(CN2CCCn3nc(C)c(-c4ccnn4C(C)C)c32)n1` [NCGC00499722-01], in assay [3], the AC50 was 1.65e-07 M.
With `CCOC(=O)c1ccnc(CNCC(=O)N(CC)CCN(C)C)c1` [NCGC00371443-05], the AC50 in assay [3] is 1.47e-07 M.
For `Oc1ccc(COC2CCN(Cc3ccccc3)C2)c2cccnc12` (stereo not shown) [NCGC00183382-01], the “Individual replicates / Log AC50 (M)” value in assay [1] is -5.2986 Log AC50 (M) and -5.1986 Log AC50 (M) and -4.7986 Log AC50 (M). In addition, in assay [3], the AC50 is 7.97e-06 M.
In the case of `O=C(O)c1ccc(O)c2ncc(N3CC(N4CCOCC4)C3)cc12` [NCGC00241761-01], the AC50 in assay [3] is 1.72e-05 M.
Take `Cc1nn2c(c1-c1ccnn1C(C)C)N(Cc1ccccc1)CCC2` [NCGC00500003-01]: the AC50 was 8.94 µM in assay [1] and 1.31e-05 M in assay [3].
Turning to `O=C(NC1CCN(c2cc(-c3ccc(Cl)cc3)n[nH]2)C1)c1ccccc1` (stereo not shown) [NCGC00437928-03], the AC50 in assay [2] was 12.6 µM; in assay [3], 1.85e-05 M.
